In US9696323B2, “Biomarkers for chagas disease related cardiomyopathy” (THE BOARD OF REGENTS OF THE UNIVERSITY OF TEXAS SYSTEM, priority 2013, dated 2017):

How the values were obtained:
[1] = 2D-GE plasma proteome profile (differential protein expression) of T. cruzi-infected rats treated with PBN and/or BZ; format: in vivo, rat; details: plasma
Excerpt: Certain embodiments include biomarkers identified in a previous study. Parasite persistence and oxidative damage in the heart are known to be of pathological significance during Chagas disease (Zacks et al., (2005) An Acad Bras Cienc, 77, 695-715; Gupta et al., (2009) Interdiscip Perspect Infect Dis, 2009, 190354). […] In the previous study the inventors identified 92 proteins that were differentially expressed or oxidized in chagasic plasma. Functional analysis allocated a majority of these proteins to inflammation/immunity and lipid metabolism categories, and to molecular pathways associated with cardiovascular dysfunction, e.g., myocardial infarction, hypertrophy, and fibrosis, and pulmonary embolism and hypertension. Some proteins in chagasic rats treated with PBN and/or BZ were allocated to curative pathways (immune regulation and cardiac remodeling). The 2D-GE results were validated by Western blotting. […] Increased plasma levels of GSN, MYL2, and VIM were directly correlated with the severity of cardiac disease in human chagasic patients. […] These findings have utility in diagnosing disease severity and designing suitable therapy for management of human chagasic patients.
Ingenuity Pathway Analysis (IPA) is a highly curated and comprehensive software used for the integration of proteins into networks and pathways with biological meaning (Thomas and Bonchev, (2010). Hum Genomics, 4, 353-360). Network analysis of the plasma proteome profile of chagasic rats identified four major sub-networks linked to host response to T. cruzi infection and disease development (Table V). The maximal numbers of the differentially expressed plasma proteins (19 proteins) in chagasic rats were associated with antigen presentation and inflammatory response category (Table V) and indicators of persistent inflammation, known to be of pathological significance in Chagas disease (Dhiman et al., (2009) Clinical and Vaccine Immunology, 16, 660-666; Tanowitz et al., (2009) Prog Cardiovasc Dis, 51, 524-539; Junqueira et al., (2010) Expert Rev Mol Med, 12, e29). Following functional analysis of the inflammation-associated proteins, 12 proteins (APOA1, APOE, C3, CFB, CFH, FGB, GSN, KRT10, PLG, SCG2, SERPINA1, and SERPINC1) were identified as being involved in immune cell trafficking and cell movement of leukocytes, granulocytes, phagocytes, neutrophils, and dendritic and antigen presenting cells. Some of the differentially expressed proteins in inflammation category were associated with activation (APOE, C3, CFH, GC and PLG), chemotaxis (C3, SCG2, SERPINA1, SERPINC1), and infiltration of leukocytes (APOA1, APOE, C3, PLG, KRT10) and neutrophils (C3, CFB, CFH, PLG). Up regulation of APOE, APOA1, APOH, GC and PLG in chagasic plasma was indicative of activation, binding and accumulation of macrophages in the disease state. Of the 19 differentially expressed inflammation-associated proteins, 11 proteins (APOE, C3, CFB, CFH, GSN, KRT10, SCG2, SERPINA1, SERPINC1, GC, and PLG) were carbonylated in chagasic plasma. […] Other proteins (APOE, C3, KRT3, and SCG2) were exposed to oxidation due to T. cruzi-induced, acute oxidative stress, but were normalized in expression and oxidation during the chronic phase.
Seventeen of the differentially expressed proteins in chagasic plasma, i.e., AFM, C4BPA, CACNA1D, DLGAP2, GC, KNG1, MUG1, MYLPF, MY05A, MY05B, PRPH, PZP, RAI14, and SCG2, were allotted to the lipid metabolism/molecular transport/small molecule biochemistry category (Table V) and functionally linked by IPA network analysis to lipid, fatty acid, and carbohydrate metabolism. A majority of the proteins in this category, i.e., ALB, APOA1, APOA4, APOE, APOH, C3, GC, GNAQ, MY05A, PLG, SCD2, SERPINA1, SERPINC1 and VIM, were linked to the synthesis, metabolism, transport, and modification of lipids and fatty acids, and to uptake and release or efflux of lipids, eicosanoids, and cholesterol. […]

T. cruzi = assay: Oxidative modification (carbonylation) of plasma proteins in chagasic rats treated with PBN and/or BZ; format: in vivo, rat; details: chagasic rat plasma; 5 of 11 carbonylated proteins (CFB, CFH, SERPRINA1, SERPINC1, PLG)
Excerpt: Certain embodiments include biomarkers identified in a previous study. Parasite persistence and oxidative damage in the heart are known to be of pathological significance during Chagas disease (Zacks et al., (2005) An Acad Bras Cienc, 77, 695-715; Gupta et al., (2009) Interdiscip Perspect Infect Dis, 2009, 190354). […] In the previous study the inventors identified 92 proteins that were differentially expressed or oxidized in chagasic plasma. Functional analysis allocated a majority of these proteins to inflammation/immunity and lipid metabolism categories, and to molecular pathways associated with cardiovascular dysfunction, e.g., myocardial infarction, hypertrophy, and fibrosis, and pulmonary embolism and hypertension. Some proteins in chagasic rats treated with PBN and/or BZ were allocated to curative pathways (immune regulation and cardiac remodeling). The 2D-GE results were validated by Western blotting. […] Increased plasma levels of GSN, MYL2, and VIM were directly correlated with the severity of cardiac disease in human chagasic patients. […] These findings have utility in diagnosing disease severity and designing suitable therapy for management of human chagasic patients. […]

Structure (SMILES): CC(C)(C)/[N+]([O-])=C/c1ccccc1 [PBN]
- Spot# 106 Average Normalized Density × 100,000 ([1]; RAP group (acute infection)): 1.70
- Spot# 106 Average Normalized Density × 100,000 ([1]; RCP/RCB/RCPB groups (chronic infection)): 6.94
- oxidative modification of inflammation-associated plasma proteins (T. cruzi): prevented the oxidative modification of five of these proteins
